Legend:
Test in all cases: relative viability (nuclei count vs DMSO), 5 days (fraction); higher = more cells survive
[1] = compound: OCc1c[nH]c2ccccc12 [Indole-3-carbinol] + Cc1cc(Nc2cc(N3CCN(C)CC3)nc(Sc3ccc(NC(=O)C4CC4)cc3)n2)n[nH]1 [Tozasertib] (partner 0.1 µM)
Summary of the method: (§1)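 Medians of duplicate plates are given as relative viability. That measure is the nuclei count in treated wells divided by the count in vehicle wells. Counts were taken on 4× images of lung cancer cell lines in 1536-well plates, 5 days after pin-tool dosing the day after seeding with one drug alone or a fixed anchor-drug dose plus five library-drug doses (not always all listed) in √10 steps.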

[2] = compound: OCc1c[nH]c2ccccc12 [Indole-3-carbinol] + Cc1nc(NC(=O)N2CCC[C@H]2C(N)=O)sc1-c1ccnc(C(C)(C)C(F)(F)F)c1 [Alpelisib] (partner 2 µM)
Summary of the method: as §1

[3] = compound: OCc1c[nH]c2ccccc12 [Indole-3-carbinol] + CS(=O)(=O)N1CCN(Cc2cc3nc(-c4cccc5[nH]ncc45)nc(N4CCOCC4)c3s2)CC1 [Pictilisib] (partner 1 µM)
Summary of the method: as §1

[4] = compound: OCc1c[nH]c2ccccc12 [Indole-3-carbinol] + O=C(CCCCCCC(=O)Nc1ccccc1)NO [Vorinostat] (partner 1 µM)
Summary of the method: as §1

[5] = compound: OCc1c[nH]c2ccccc12 [Indole-3-carbinol] + N=C(N)NC(=N)NCCc1ccccc1 [Phenformin] (partner 250 µM)
Summary of the method: as §1

## NCI-H441
[1]; first compound 0.253 µM
  relative viability: 0.551
[1]; first compound 0.8 µM
  relative viability: 0.782
[1]; first compound 2.53 µM
  relative viability: 0.702
[1]; first compound 8 µM
  relative viability: 0.595
[2]; first compound 0.253 µM
  relative viability: 0.796
[2]; first compound 0.8 µM
  relative viability: 0.831
[2]; first compound 2.53 µM
  relative viability: 0.794
[2]; first compound 8 µM
  relative viability: 0.736
[3]; first compound 0.253 µM
  relative viability: 0.479
[3]; first compound 0.8 µM
  relative viability: 0.491
[3]; first compound 2.53 µM
  relative viability: 0.539
[3]; first compound 8 µM
  relative viability: 0.508
[4]; first compound 0.253 µM
  relative viability: 0.823
[4]; first compound 0.8 µM
  relative viability: 1.05
[4]; first compound 2.53 µM
  relative viability: 1.09
[4]; first compound 8 µM
  relative viability: 0.758
[5]; first compound 0.253 µM
  relative viability: 0.883
[5]; first compound 0.8 µM
  relative viability: 1.01
[5]; first compound 2.53 µM
  relative viability: 0.955
[5]; first compound 8 µM
  relative viability: 0.797

## NCI-H460
[1]; first compound 0.253 µM
  relative viability: 0.426
[1]; first compound 0.8 µM
  relative viability: 0.385
[1]; first compound 2.53 µM
  relative viability: 0.532
[1]; first compound 8 µM
  relative viability: 0.443
[2]; first compound 0.253 µM
  relative viability: 0.458
[2]; first compound 0.8 µM
  relative viability: 0.457
[2]; first compound 2.53 µM
  relative viability: 0.563
[2]; first compound 8 µM
  relative viability: 0.517
[3]; first compound 0.253 µM
  relative viability: 0.479
[3]; first compound 0.8 µM
  relative viability: 0.271
[3]; first compound 2.53 µM
  relative viability: 0.373
[3]; first compound 8 µM
  relative viability: 0.337
[4]; first compound 0.253 µM
  relative viability: 0.768
[4]; first compound 0.8 µM
  relative viability: 0.76
[4]; first compound 2.53 µM
  relative viability: 0.754
[4]; first compound 8 µM
  relative viability: 0.683
[5]; first compound 0.253 µM
  relative viability: 0.535
[5]; first compound 0.8 µM
  relative viability: 0.482
[5]; first compound 2.53 µM
  relative viability: 0.53
[5]; first compound 8 µM
  relative viability: 0.498

## NCI-H520
[1]; first compound 0.253 µM
  relative viability: 0.445
[1]; first compound 0.8 µM
  relative viability: 0.46
[1]; first compound 2.53 µM
  relative viability: 0.417
[1]; first compound 8 µM
  relative viability: 0.457
[2]; first compound 0.253 µM
  relative viability: 0.911
[2]; first compound 0.8 µM
  relative viability: 1.07
[2]; first compound 2.53 µM
  relative viability: 1.04
[2]; first compound 8 µM
  relative viability: 0.849
[3]; first compound 0.253 µM
  relative viability: 0.287
[3]; first compound 0.8 µM
  relative viability: 0.255
[3]; first compound 2.53 µM
  relative viability: 0.27
[3]; first compound 8 µM
  relative viability: 0.254
[4]; first compound 0.253 µM
  relative viability: 0.707
[4]; first compound 0.8 µM
  relative viability: 0.7
[4]; first compound 2.53 µM
  relative viability: 0.87
[4]; first compound 8 µM
  relative viability: 0.692
[5]; first compound 0.253 µM
  relative viability: 0.58
[5]; first compound 0.8 µM
  relative viability: 0.549
[5]; first compound 2.53 µM
  relative viability: 0.622
[5]; first compound 8 µM
  relative viability: 0.585

## NCI-H596
[1]; first compound 0.253 µM
  relative viability: 0.803
[1]; first compound 0.8 µM
  relative viability: 1.04
[1]; first compound 2.53 µM
  relative viability: 0.784
[1]; first compound 8 µM
  relative viability: 0.896
[2]; first compound 0.253 µM
  relative viability: 0.387
[2]; first compound 0.8 µM
  relative viability: 0.48
[2]; first compound 2.53 µM
  relative viability: 0.417
[2]; first compound 8 µM
  relative viability: 0.47
[3]; first compound 0.253 µM
  relative viability: 0.368
[3]; first compound 0.8 µM
  relative viability: 0.416
[3]; first compound 2.53 µM
  relative viability: 0.364
[3]; first compound 8 µM
  relative viability: 0.411
[4]; first compound 0.253 µM
  relative viability: 0.552
[4]; first compound 0.8 µM
  relative viability: 0.522
[4]; first compound 2.53 µM
  relative viability: 0.565
[4]; first compound 8 µM
  relative viability: 0.675
[5]; first compound 0.253 µM
  relative viability: 0.633
[5]; first compound 0.8 µM
  relative viability: 0.735
[5]; first compound 2.53 µM
  relative viability: 0.77
[5]; first compound 8 µM
  relative viability: 0.723

## NCI-H647
[1]; first compound 0.253 µM
  relative viability: 0.147
[1]; first compound 2.53 µM
  relative viability: 0.368
[1]; first compound 8 µM
  relative viability: 0.398
[2]; first compound 0.253 µM
  relative viability: 1.22
[2]; first compound 0.8 µM
  relative viability: 1.15
[2]; first compound 2.53 µM
  relative viability: 1.24
[2]; first compound 8 µM
  relative viability: 1.09
[3]; first compound 0.253 µM
  relative viability: 0.469
[3]; first compound 2.53 µM
  relative viability: 0.489
[3]; first compound 8 µM
  relative viability: 0.437
[4]; first compound 0.253 µM
  relative viability: 0.731
[4]; first compound 0.8 µM
  relative viability: 0.529
[4]; first compound 2.53 µM
  relative viability: 0.731
[4]; first compound 8 µM
  relative viability: 0.538
[5]; first compound 0.253 µM
  relative viability: 0.637
[5]; first compound 2.53 µM
  relative viability: 0.569
[5]; first compound 8 µM
  relative viability: 0.446

## NCI-H650
[1]; first compound 0.253 µM
  relative viability: 0.743
[1]; first compound 0.8 µM
  relative viability: 0.767
[1]; first compound 2.53 µM
  relative viability: 0.805
[1]; first compound 8 µM
  relative viability: 0.681
[2]; first compound 0.253 µM
  relative viability: 1.06
[2]; first compound 0.8 µM
  relative viability: 1.18
[2]; first compound 2.53 µM
  relative viability: 1.05
[2]; first compound 8 µM
  relative viability: 0.953
[3]; first compound 0.253 µM
  relative viability: 0.899
[3]; first compound 0.8 µM
  relative viability: 0.871
[3]; first compound 2.53 µM
  relative viability: 0.929
[3]; first compound 8 µM
  relative viability: 0.913
[4]; first compound 0.253 µM
  relative viability: 0.654
[4]; first compound 0.8 µM
  relative viability: 0.454
[4]; first compound 2.53 µM
  relative viability: 0.411
[4]; first compound 8 µM
  relative viability: 0.456
[5]; first compound 0.253 µM
  relative viability: 0.47
[5]; first compound 0.8 µM
  relative viability: 0.491
[5]; first compound 2.53 µM
  relative viability: 0.484
[5]; first compound 8 µM
  relative viability: 0.416

## NCI-H661
[1]; first compound 0.253 µM
  relative viability: 0.335
[1]; first compound 0.8 µM
  relative viability: 0.334
[1]; first compound 2.53 µM
  relative viability: 0.359
[1]; first compound 8 µM
  relative viability: 0.348
[2]; first compound 0.253 µM
  relative viability: 0.793
[2]; first compound 0.8 µM
  relative viability: 0.502
[2]; first compound 2.53 µM
  relative viability: 0.74
[2]; first compound 8 µM
  relative viability: 0.594
[3]; first compound 0.253 µM
  relative viability: 0.389
[3]; first compound 0.8 µM
  relative viability: 0.325
[3]; first compound 2.53 µM
  relative viability: 0.448
[3]; first compound 8 µM
  relative viability: 0.384
[4]; first compound 0.253 µM
  relative viability: 0.762
[4]; first compound 0.8 µM
  relative viability: 0.816
[4]; first compound 2.53 µM
  relative viability: 0.874
[4]; first compound 8 µM
  relative viability: 0.716
[5]; first compound 0.253 µM
  relative viability: 0.281
[5]; first compound 0.8 µM
  relative viability: 0.253
[5]; first compound 2.53 µM
  relative viability: 0.272
[5]; first compound 8 µM
  relative viability: 0.266

## NCI-H727
[1]; first compound 0.253 µM
  relative viability: 0.512
[1]; first compound 0.8 µM
  relative viability: 0.73
[1]; first compound 2.53 µM
  relative viability: 0.599
[1]; first compound 8 µM
  relative viability: 0.554
[2]; first compound 0.253 µM
  relative viability: 0.583
[2]; first compound 0.8 µM
  relative viability: 0.562
[2]; first compound 2.53 µM
  relative viability: 0.535
[2]; first compound 8 µM
  relative viability: 0.603
[3]; first compound 0.253 µM
  relative viability: 0.263
[3]; first compound 0.8 µM
  relative viability: 0.409
[3]; first compound 2.53 µM
  relative viability: 0.477
[3]; first compound 8 µM
  relative viability: 0.494
[4]; first compound 0.253 µM
  relative viability: 1.13
[4]; first compound 0.8 µM
  relative viability: 1.12
[4]; first compound 2.53 µM
  relative viability: 1.36
[4]; first compound 8 µM
  relative viability: 1.23
[5]; first compound 0.253 µM
  relative viability: 0.532
[5]; first compound 0.8 µM
  relative viability: 0.502
[5]; first compound 2.53 µM
  relative viability: 0.458
[5]; first compound 8 µM
  relative viability: 0.673
